Assay results as given in ChEMBL document CHEMBL6071152, “Design, synthesis, and biological evaluation of oridonin derivatives as novel NLRP3 inflammasome inhibitors for the treatment of acute lung injury” (Eur J Med Chem, 2024).
Calls of active or inactive are those of the source. No cut-off for these calls is given here.

How the values were obtained:
[1] = biological target: NACHT, LRR and PYD domains-containing protein 3 (Mus musculus) (UniProt Q8R4B8); experiment: Inhibition of NLRP3 inflammasome priming in ICR mouse BMDM assessed as inhibition of pro-caspase-1 expression in cell supernatant at 0.2 to 5 uM pretreated with compound for 1 hr followed by stimulation with LPS for 3 hrs and later incubated with ATP for 30 mins by western blot analysis; assay type: cell-based; settings: dose 0.2-5 µM, time 4.5 hrs
Sequence of NACHT, LRR and PYD domains-containing protein 3 (Mus musculus) (Q8R4B8 whole entry, the tested form may be a part): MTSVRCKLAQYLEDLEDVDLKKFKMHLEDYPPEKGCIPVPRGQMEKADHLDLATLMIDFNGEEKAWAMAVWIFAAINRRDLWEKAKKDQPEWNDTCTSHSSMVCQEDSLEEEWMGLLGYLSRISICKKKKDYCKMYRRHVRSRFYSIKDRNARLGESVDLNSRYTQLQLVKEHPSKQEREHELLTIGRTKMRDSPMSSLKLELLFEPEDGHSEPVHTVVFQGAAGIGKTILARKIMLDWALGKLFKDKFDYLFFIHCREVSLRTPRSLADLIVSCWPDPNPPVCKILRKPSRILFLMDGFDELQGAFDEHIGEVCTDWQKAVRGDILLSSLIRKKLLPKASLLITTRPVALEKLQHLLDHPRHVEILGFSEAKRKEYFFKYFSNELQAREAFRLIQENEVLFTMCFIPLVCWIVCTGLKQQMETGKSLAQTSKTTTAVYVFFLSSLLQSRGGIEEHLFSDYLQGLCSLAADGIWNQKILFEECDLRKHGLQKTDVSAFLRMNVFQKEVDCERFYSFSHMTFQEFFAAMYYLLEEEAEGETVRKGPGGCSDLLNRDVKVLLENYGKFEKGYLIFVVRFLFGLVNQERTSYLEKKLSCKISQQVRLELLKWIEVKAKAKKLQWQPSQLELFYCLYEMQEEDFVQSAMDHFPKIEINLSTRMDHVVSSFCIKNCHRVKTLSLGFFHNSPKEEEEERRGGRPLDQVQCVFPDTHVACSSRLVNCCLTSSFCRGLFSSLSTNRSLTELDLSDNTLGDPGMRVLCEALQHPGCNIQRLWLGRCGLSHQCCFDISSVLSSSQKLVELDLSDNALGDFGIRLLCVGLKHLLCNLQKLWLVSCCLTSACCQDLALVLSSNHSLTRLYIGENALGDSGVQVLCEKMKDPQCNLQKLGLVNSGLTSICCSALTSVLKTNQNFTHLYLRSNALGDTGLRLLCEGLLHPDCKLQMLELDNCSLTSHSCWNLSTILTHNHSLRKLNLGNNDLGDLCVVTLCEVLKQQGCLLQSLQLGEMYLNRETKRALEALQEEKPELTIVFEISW

[2] = biological target: NACHT, LRR and PYD domains-containing protein 3 (Mus musculus) (UniProt Q8R4B8); experiment: (§1) Inhibition of NLRP3 inflammasome priming in ICR mouse BMDM assessed as inhibition of pro-caspase-1 protein expression in cell lysate at 1 uM treated for 3 hrs with LPS followed by incubation with compound for 1 hr and later stimulated with ATP for 0.5 hrs by western blot analysis; assay type: subcellular; settings: time 1.5 hrs
Mus musculus [3] = experiment: Anti-inflammatory activity against LPS-stimulated acute lung injury C57BL/6 mouse model assessed as decrease in IL-1 beta level in serum at 0.1 to 1 mg/kg, ip treated for 3 days and on third day administered with LPS at 30 mins post-compound challenge and measured after 12 hrs by ELISA; assay type: functional, organism-based; settings: dose 0.1-1 mg/kg, time 3.5 day
[4] = biological target: NACHT, LRR and PYD domains-containing protein 3 (Mus musculus) (UniProt Q8R4B8); experiment: Inhibition of NLRP3 inflammasome priming in ICR mouse BMDM assessed as inhibition of ASC protein expression in cell lysate at 0.2 to 5 uM treated for 3 hrs with LPS followed by incubation with compound for 1 hr and later stimulated with ATP for 0.5 hrs by western blot analysis; assay type: subcellular; settings: dose 0.2-5 µM, time 1.5 hrs
[5] = biological target: NACHT, LRR and PYD domains-containing protein 3 (Mus musculus) (UniProt Q8R4B8); experiment: Inhibition of NLRP3 inflammasome priming in ICR mouse BMDM assessed as inhibition of pro-IL1 beta protein expression in cell lysate at 1 uM treated for 3 hrs with LPS followed by incubation with compound for 1 hr and later stimulated with MSU for 4 hrs by western blot analysis; assay type: subcellular; settings: time 5.0 hrs
Mus musculus [6] = experiment: (§2) Anti-inflammatory activity against LPS-stimulated acute lung injury C57BL/6 mouse model assessed as decrease in inflammatory cell infiltration in right lung at 1 to 10 mg/kg, ip treated for 3 days and on third day administered with LPS at 30 mins post-compound challenge and measured after 12 hrs by Hematoxylin-Eosin staining analysis; assay type: functional, organism-based; settings: dose 1-10 mg/kg, time 3.5 day
[7] = biological target: T1, Interferon-inducible protein AIM2 (Mus musculus) (UniProt Q91VJ1); experiment: Inhibition of AIM2 inflammasome activation in ICR mouse BMDM assessed as inhibition of poly(dA:dT)-stimulated IL-1 beta secretion in cell supernatant at 1 uM treated for 3 hrs with LPS followed by incubation with compound for 1 hr and later cells transfected with poly(dA:dT) for 4 hrs by ELISA; assay type: cell-based; settings: time 5.0 hrs
T1 sequence (whole entry): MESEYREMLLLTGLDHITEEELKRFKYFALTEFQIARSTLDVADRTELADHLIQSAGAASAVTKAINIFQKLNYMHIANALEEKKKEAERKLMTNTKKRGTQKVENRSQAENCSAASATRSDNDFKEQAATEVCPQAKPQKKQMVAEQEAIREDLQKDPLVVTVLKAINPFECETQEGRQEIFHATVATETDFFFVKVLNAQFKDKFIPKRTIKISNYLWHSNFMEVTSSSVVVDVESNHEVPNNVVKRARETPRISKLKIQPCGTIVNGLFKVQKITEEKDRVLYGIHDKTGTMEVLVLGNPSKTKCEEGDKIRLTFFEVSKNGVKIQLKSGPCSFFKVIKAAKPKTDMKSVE

[8] = biological target: NACHT, LRR and PYD domains-containing protein 3 (Mus musculus, UniProt Q8R4B8); experiment: Inhibition of NLRP3 inflammasome activation in ICR mouse BMDM assessed as inhibition of LPS/ATP-stimulated IL-1 beta production in cell supernatant treated for 3 hrs with LPS followed by incubation with compound for 1 hr and later stimulated with ATP for 0.5 hrs by ELISA; assay type: cell-based
Sequence of NACHT, LRR and PYD domains-containing protein 3 (Q8R4B8 whole entry, the tested form may be a part): as the sequence (Q8R4B8 whole entry, the tested form may be a part) above

Mus musculus [9] = experiment: (§3) Anti-inflammatory activity against LPS-stimulated acute lung injury C57BL/6 mouse model assessed as decrease in IL-18 mRNA expression in right lung at 0.1 to 1 mg/kg, ip treated for 3 days and on third day administered with LPS at 30 mins post-compound challenge and measured after 12 hrs by RT-qPCR analysis; assay type: functional, organism-based; settings: dose 0.1-1 mg/kg, time 3.5 day
Mus musculus [10] = experiment: as §3, with “TNF-alpha” for “IL-18”; assay type: functional, organism-based; settings: dose 0.1-1 mg/kg, time 3.5 day
[11] = biological target: NACHT, LRR and PYD domains-containing protein 3 (Mus musculus) (UniProt Q8R4B8); experiment: as §1, with “activation” for “priming”, “LPS/nigericin-stimulated caspase-1” for “pro-caspase-1 protein”, “supernatant” for “lysate”, “nigericin” for “ATP”; assay type: cell-based; settings: time 1.5 hrs
[12] = biological target: NACHT, LRR and PYD domains-containing protein 3 (Mus musculus) (UniProt Q8R4B8); experiment: Inhibition of NLRP3 inflammasome priming in ICR mouse BMDM assessed as inhibition of ASC expression in cell supernatant at 0.2 to 5 uM pretreated with compound for 1 hr followed by stimulation with LPS for 3 hrs and later incubated with ATP for 30 mins by western blot analysis; assay type: cell-based; settings: dose 0.2-5 µM, time 4.5 hrs
Mus musculus [13] = experiment: Anti-inflammatory activity against LPS-stimulated acute lung injury C57BL/6 mouse model assessed as decrease in IL-6 level in BALF at 0.1 to 1 mg/kg, ip treated for 3 days and on third day administered with LPS at 30 mins post-compound challenge and measured after 12 hrs by ELISA; assay type: functional, organism-based; settings: dose 0.1-1 mg/kg, time 3.5 day
[14] = biological target: NACHT, LRR and PYD domains-containing protein 3 (Mus musculus) (UniProt Q8R4B8); experiment: (§4) Inhibition of NLRP3 inflammasome activation in ICR mouse BMDM assessed as inhibition of LPS/nigericin-stimulated IL-1 beta secretion in cell supernatant at 1 uM treated for 3 hrs with LPS followed by incubation with compound for 1 hr and later stimulated with nigericin for 0.5 hrs by ELISA; assay type: cell-based; settings: time 1.5 hrs
[15] = biological target: NLR family CARD domain-containing protein 4 (Mus musculus) (UniProt Q3UP24); experiment: Inhibition of NLRC4 inflammasome activation in ICR mouse BMDM assessed as inhibition of FLA-ST-stimulated caspase-1 expression in cell supernatant at 1 uM treated for 3 hrs with LPS followed by incubation with compound for 1 hr and later stimulated with FLA-ST for 2 hrs by western blot analysis; assay type: cell-based
Sequence of NLR family CARD domain-containing protein 4 (Mus musculus) (Q3UP24 whole entry, the tested form may be a part): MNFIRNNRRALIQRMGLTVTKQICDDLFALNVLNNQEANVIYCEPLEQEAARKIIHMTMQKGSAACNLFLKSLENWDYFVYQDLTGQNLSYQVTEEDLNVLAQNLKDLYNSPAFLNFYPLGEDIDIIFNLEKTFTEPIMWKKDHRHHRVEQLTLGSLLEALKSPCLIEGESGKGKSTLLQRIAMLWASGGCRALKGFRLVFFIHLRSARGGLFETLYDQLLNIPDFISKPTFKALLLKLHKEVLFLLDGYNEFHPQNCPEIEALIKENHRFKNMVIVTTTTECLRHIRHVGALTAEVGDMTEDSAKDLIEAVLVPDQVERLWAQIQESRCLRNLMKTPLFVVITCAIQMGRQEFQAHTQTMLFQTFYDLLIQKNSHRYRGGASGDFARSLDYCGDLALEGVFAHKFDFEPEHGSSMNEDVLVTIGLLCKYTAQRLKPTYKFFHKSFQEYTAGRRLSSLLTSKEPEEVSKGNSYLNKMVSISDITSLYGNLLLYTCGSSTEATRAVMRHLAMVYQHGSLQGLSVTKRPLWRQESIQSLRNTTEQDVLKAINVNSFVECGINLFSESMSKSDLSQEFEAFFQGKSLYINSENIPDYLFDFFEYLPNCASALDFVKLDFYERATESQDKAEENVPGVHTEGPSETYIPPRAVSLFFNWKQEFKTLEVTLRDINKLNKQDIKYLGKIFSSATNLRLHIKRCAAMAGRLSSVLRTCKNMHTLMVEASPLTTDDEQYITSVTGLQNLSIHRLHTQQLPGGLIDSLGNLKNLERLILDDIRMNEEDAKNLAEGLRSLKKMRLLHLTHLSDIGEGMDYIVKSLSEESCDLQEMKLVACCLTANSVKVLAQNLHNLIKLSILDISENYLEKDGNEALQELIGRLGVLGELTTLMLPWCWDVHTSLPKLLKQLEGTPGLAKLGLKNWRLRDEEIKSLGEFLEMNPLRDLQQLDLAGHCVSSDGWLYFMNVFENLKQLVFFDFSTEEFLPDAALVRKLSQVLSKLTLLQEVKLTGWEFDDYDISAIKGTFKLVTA

Mus musculus [16] = experiment: as §2, with “alveolar dilation” for “inflammatory cell infiltration”; assay type: functional, organism-based; settings: dose 1-10 mg/kg, time 3.5 day
[17] = biological target: NACHT, LRR and PYD domains-containing protein 3 (Mus musculus) (UniProt Q8R4B8); experiment: as §4, with “expression” for “secretion”, “western blot analysis” for “ELISA”; assay type: cell-based; settings: time 1.5 hrs
[18] = biological target: NACHT, LRR and PYD domains-containing protein 3 (Mus musculus) (UniProt Q8R4B8); experiment: Inhibition of NLRP3 inflammasome priming in ICR mouse BMDM assessed as inhibition of LPS/ATP-stimulated TNF-alpha secretion in cell supernatant at 0.2 to 5 uM treated for 3 hrs with LPS followed by incubation with compound for 1 hr and later stimulated with ATP for 0.5 hrs by ELISA; assay type: cell-based; settings: dose 0.2-5 µM, time 1.5 hrs
[19] = biological target: NACHT, LRR and PYD domains-containing protein 3 (Mus musculus) (UniProt Q8R4B8); experiment: Inhibition of NLRP3 inflammasome priming in ICR mouse BMDM assessed as inhibition of TNF-alpha secretion in cell supernatant at 0.2 to 5 uM pretreated with compound for 1 hr followed by stimulation with LPS for 3 hrs and later incubated with ATP for 30 mins by ELISA; assay type: cell-based; settings: dose 0.2-5 µM, time 4.5 hrs
[20] = biological target: NACHT, LRR and PYD domains-containing protein 3 (Mus musculus) (UniProt Q8R4B8); experiment: Inhibition of NLRP3 inflammasome activation in ICR mouse BMDM assessed as inhibition of LPS/ATP-stimulated caspase-1 expression in cell supernatant at 1 uM treated for 3 hrs with LPS followed by incubation with compound for 1 hr and later stimulated with ATP for 0.5 hrs by western blot analysis; assay type: cell-based; settings: time 1.5 hrs
Mus musculus [21] = experiment: as §3, with “IL-1 beta” for “IL-18”; assay type: functional, organism-based; settings: dose 0.1-1 mg/kg, time 3.5 day

With `C=C1C(=O)[C@]23[C@H](OC(=O)Nc4ccc(F)cc4)[C@H]1CC[C@H]2[C@]12C=CCC(C)(C)[C@H]1[C@H](O)[C@@]3(O)OC2` the inhibition [1] was “inactive”, the inhibition [2] was “inactive” and the Activity (Mus musculus [3]) was “Dose-Dependent Effect”. The inhibition [4] was “inactive”, the inhibition [5] was “inactive” and the Activity (Mus musculus [6]) was “Active”. For the same molecule, the inhibition [7] was “inactive”, the IC50 [8] was 41.8 nM and the Activity (Mus musculus [9]) was “Dose-Dependent Effect”. The Activity (Mus musculus [10]) was “Dose-Dependent Effect”, the inhibition [11] was “Active” and the inhibition [12] was “inactive”. For the same molecule, the Activity (Mus musculus [13]) was “Dose-Dependent Effect”, the inhibition [14] was “Active” and the inhibition [15] was “inactive”. For the same molecule, the Activity (Mus musculus [16]) was “Active”, the inhibition [17] was “Active” and the inhibition [18] was “inactive”. For the same molecule, the inhibition [19] was “inactive”, the inhibition [20] was “Active” and the Activity (Mus musculus [21]) was “Dose-Dependent Effect”.
